Values quoted from earlier work, collected in patent US10273202B2, “Nitroxyl progenitor compounds and methods of use” (The Johns Hopkins University, priority 2004, dated 2019).
Read-outs that look alike come from different tables or passages of the source.

System: dog with congestive heart failure
Conditions: CHF dogs
[1] = 5-10 μg/kg/min for 15 min i.v., n=8

[Na+].[Na+].[O-][N+]([O-])=NO [AS, Angeli's salt]
Ees, % from baseline [1]: +46 ± 8% | LVEDD, % from baseline [1]: −3.8 ± 1% | LVEDP, % from baseline [1]: −50 ± 12% | LVESD, % from baseline [1]: −3.9 ± 1% | LVESP, % from baseline [1]: −13 ± 2% | RT, % from baseline [1]: −12 ± 5% | Tau, % from baseline [1]: −18 ± 2% | Ees, % from baseline (5-10 μg/kg/min, + volume): +37 ± 5% | LVEDD, % from baseline (5-10 μg/kg/min, + volume): −1.7 ± 1% | LVEDP, % from baseline (5-10 μg/kg/min, + volume): −34 ± 19% | LVESD, % from baseline (5-10 μg/kg/min, + volume): −3.0 ± 0.5% | LVESP, % from baseline (5-10 μg/kg/min, + volume): −9.9 ± 2% | RT, % from baseline (5-10 μg/kg/min, + volume): −14 ± 4% | Tau, % from baseline (5-10 μg/kg/min, + volume): −15 ± 3%
